# Key:
# Test in all cases: cells
# [1] = test system: MV4-11; details: Homo sapiens, MV4-11, 72 h
# Description: Antiproliferative activity against human MV4-11 cells harboring FLT3-ITD mutant assessed as inhibition of cell growth incubated for 3 days by MTT assay
# [2] = test system: MV4-11; details: Homo sapiens, MV4-11, 72 h; remark: listed apart in the source
# [3] = test system: MV4-11; details: Homo sapiens, MV4-11, 72 h, read-out: INH
SMILES,IC50 [1] [nM],IC50 [2] [nM],inhibition at 10 µM [3] [%]
CCn1cc(-c2n[nH]c3cc(-c4ccnc(N)c4)ccc23)cn1,163,> 10000,
O=C(c1ccc(/C=C/c2n[nH]c3ccc(-c4ccncc4)cc23)cc1)N1CCNCC1,58.7,> 10000,
Nc1nccc(-c2ccc3c(/C=C/c4ccc(CN5CCOCC5)c(F)c4)n[nH]c3c2)n1,10.7,600,
Nc1cc(-c2ccc3c(-c4ccc(S(=O)(=O)N5CCOCC5)cc4)n[nH]c3c2)ccn1,197,> 10000,
Nc1cc(-c2ccc3c(-c4cnn(CCO)c4)n[nH]c3c2)ccn1,222,> 10000,
Nc1cc(-c2ccc3c(/C=C/c4cccnc4)n[nH]c3c2)ccn1,29.5,2300,
Nc1cc(-c2ccc3c(-c4ccc(N5CCOCC5)cc4)n[nH]c3c2)ccn1,44.5,> 10000,
COc1cc(/C=C/c2n[nH]c3cc(-c4ccnc(N)c4)ccc23)cc(OC)c1,354,> 10000,
CN1CCN(Cc2ccc(-c3n[nH]c4cc(-c5ccnc(N)c5)ccc34)cc2)CC1,156,> 10000,
CCc1nc(C(N)=O)c(Nc2ccc(N3CCC(N4CCN(C)CC4)CC3)c(OC)c2)nc1NC1CCOCC1 [GILTERITINIB],,,> 70
Nc1cc(-c2ccc3c(/C=C/c4ccncc4)n[nH]c3c2)ccn1,18.4,6900,
O=C(c1ccc(/C=C/c2n[nH]c3ccc(-c4cccnc4)cc23)cc1)N1CCNCC1,15.1,> 10000,
O=C(c1ccc(/C=C/c2n[nH]c3cc(-c4ccnc5[nH]ccc45)ccc23)cc1)N1CCNCC1,18.7,5700,
CN1CCN(c2ccc(-c3n[nH]c4cc(-c5ccnc(N)c5)ccc34)cc2)CC1,54.9,> 10000,
O=C(c1ccc(/C=C/c2n[nH]c3ccc(-c4ccccc4)cc23)cc1)N1CCNCC1,55.3,> 10000,
O=C(Cc1ccc(-c2ccc(OCCN3CCOCC3)cc2)cn1)NCc1ccccc1 [TIRBANIBULIN],,,> 70
Nc1cc(-c2ccc3c(CCc4ccc(CN5CCOCC5)c(F)c4)n[nH]c3c2)ccn1,219,> 10000,
Nc1cc(-c2ccc3c(/C=C/c4ccccc4)n[nH]c3c2)ccn1,39.8,6100,
Nc1cc(-c2cnc3c(/C=C/c4ccc(CN5CCOCC5)c(F)c4)n[nH]c3c2)ccn1,25.6,900,
Nc1cc(-c2ccc3c(-c4ccc(CN5CCOCC5)cc4)n[nH]c3c2)ccn1,87.7,> 10000,

# Now from value to compound, other results behind:
IC50 [1] [nM],IC50 [2] [nM],SMILES,inhibition at 10 µM [3] [%]
27.1,> 10000,Nc1ccc(-c2ccc3c(/C=C/c4ccc(C(=O)N5CCNCC5)cc4)n[nH]c3c2)cn1,
6.4,2800,CN1CCN(c2ccc(/C=C/c3n[nH]c4cc(-c5ccnc(N)c5)ccc34)cc2)CC1,
11.4,1100,Nc1cc(-c2ccc3c(/C=C/c4ccc(CN5CCOCC5)cc4)n[nH]c3c2)ccn1,
9,3400,Nc1cc(-c2ccc3c(/C=C/c4ccc(N5CCOCC5)cc4)n[nH]c3c2)ccn1,
12.9,3400,O=C(c1ccc(/C=C/c2n[nH]c3cc(-c4ccncc4)ccc23)cc1)N1CCNCC1,
16.5,1600,CN1CCN(Cc2ccc(/C=C/c3n[nH]c4cc(-c5ccnc(N)c5)ccc34)cc2)CC1,
20.3,2300,Nc1cc(-c2ccc3c(/C=C/c4ccc(C(=O)N5CCOCC5)cc4)n[nH]c3c2)ccn1,
10.4,800,Nc1cc(-c2ccc3c(/C=C/c4ccc(CN5CCOCC5)c(Cl)c4)n[nH]c3c2)ccn1,
6.2,1800,Nc1cc(-c2ccc3c(/C=C/c4ccc(C(=O)N5CCNCC5)cc4)n[nH]c3c2)ccn1,
16.5,> 10000,O=C(c1ccc(/C=C/c2n[nH]c3cc(-c4cccnc4)ccc23)cc1)N1CCNCC1,
22.5,6900,O=C(c1ccc(/C=C/c2n[nH]c3cc(-c4ccccc4)ccc23)cc1)N1CCNCC1,

# Reference: ChEMBL document CHEMBL6182915, “Discovery of a Potent FLT3 Inhibitor (E)-4-(3-(3-Fluoro-4-(morpholinomethyl)styryl)-1H-indazol-6-yl)pyridin-2-amine for the Treatment of Acute Myeloid Leukemia with Multiple FLT3 Mutations” (J Med Chem, 2025)
